According to US9862726B2, “Opioid receptor modulating oxabicyclo[2.2.2]octane morphinans” (PURDUE PHARMA L.P., priority 2013, dated 2018):

Assays:
μ-opioid receptor [1] = molecular target: T1, μ-opioid receptor (Homo sapiens (Human), UniProt P35372); assay: μ-opioid receptor radioligand dose-displacement binding assay (HEK-293 cells)
Description: Radioligand dose-displacement binding assays for μ-opioid receptors used 0.3 nM [^3H]-diprenorphine (Perkin Elmer, Shelton, Conn.), with […] membrane protein/well in a final volume of 500 μl binding buffer (10 mM MgCl2, 1 mM EDTA, 5% DMSO, 50 mM HEPES, pH 7.4). Reactions were carried out in the absence or presence of increasing concentrations of unlabeled naloxone. All reactions were conducted in 96-deep well polypropylene plates for 2 hours at room temperature. Binding reactions were terminated by rapid filtration onto 96-well Unifilter GF/C filter plates (Perkin Elmer, Shelton, Conn.), presoaked in 0.5% polyethylenimine using a 96-well tissue harvester (Perkin Elmer, Shelton, Conn.) followed by performing three filtration washes with 500 μl of ice-cold binding buffer. Filter plates were subsequently dried at 50° C. for 2-3 hours. BetaScint scintillation cocktail (Perkin Elmer, Shelton, Conn.) was added (50 μl/well), and plates were counted using a Packard Top-Count for 1 min/well. The data were analyzed using the one-site competition curve fitting functions in GraphPad PRISM™ v. 3.0 or higher (San Diego, Calif.), or an in-house function for one-site competition curve-fitting.
(§1) In TABLE 3, binding affinity of certain Compounds of the Invention to the μ- and κ-opioid receptors was determined as described above using HEK-293 cells.

[2] = molecular target: recombinant human kappa opioid receptor (κ) (Homo sapiens (Human), UniProt P41145); assay: κ-opioid receptor radioligand dose-displacement binding assay (HEK-293 cells)
Description: Membranes from HEK-293 cells, CHO cells or U-2 OS cells expressing the recombinant human kappa opioid receptor (κ) were prepared by lysing cells in ice cold hypotonic buffer (2.5 mM MgCl2, 50 mM HEPES, pH 7.4) (10 mL/10 cm dish) followed by homogenization with a tissue grinder/Teflon pestle. Membranes from a cell line naturally expressing kappa opioid receptor can also be used. Membranes were collected by centrifugation at 30,000×g for 15 min at 4° C. and pellets were resuspended in hypotonic buffer to a final concentration of 1-3 mg/mL. Protein concentrations were determined using the BioRad protein assay reagent with bovine serum albumen as standard. Aliquots of κ receptor membranes were stored at −80° C.
Radioligand dose displacement assays used 0.4 nM [^3H]-U69,593 (GE Healthcare, Piscataway, N.J.; 40 Ci/mmole) with 15 μg membrane protein (recombinant κ opioid receptor expressed in HEK 293 cells; in-house prep) in a final volume of 200 μl binding buffer (5% DMSO, 50 mM Trizma base, pH 7.4). Non-specific binding was determined in the presence of 10 μM unlabeled naloxone or U69,593. All reactions were performed in 96-well polypropylene plates for 1 hour at a temperature of about 25° C. Binding reactions were terminated by rapid filtration onto 96-well Unifilter GF/C filter plates (Perkin Elmer, Shelton, Conn.) presoaked in 0.5% polyethylenimine (Sigma). Harvesting was performed using a 96-well tissue harvester (Perkin Elmer, Shelton, Conn.) followed by five filtration washes with 200 μl ice-cold binding buffer. Filter plates were subsequently dried at 50° C. for 1-2 hours. Fifty μl/well scintillation cocktail (Perkin Elmer, Shelton, Conn.) was added and plates were counted in a Packard Top-Count for 1 min/well.
as §1

μ-opioid receptor [3] = molecular target: T1, μ-opioid receptor; assay: μ-opioid receptor [35S]GTPγS functional assay (HEK-293 cells); type: biochemical; conditions: for Emax: HEK-293 cells, relative to DAMGO
Description: (§2) [^35S]GTPγS functional assays were conducted using freshly thawed μ-receptor membranes prepared in-house from a cell line expressing recombinant μ opioid receptor in a HEK-293, CHO or U-2 OS cell background, or purchased from a commercial source (Perkin Elmer, Shelton, Conn.; or DiscovRx, Fremont, Calif.). Assay reactions were prepared by sequentially adding the following reagents to binding buffer (100 mM NaCl, 10 mM MgCl2, 20 mM HEPES, pH 7.4) on ice (final concentrations indicated): membrane protein (0.026 mg/mL), saponin ([…]), GDP ([…]) and [^35S]GTPγS (0.20 nM; Perkin Elmer, Shelton, Conn.). The prepared membrane solution (190 μl/well) was transferred to 96-shallow well polypropylene plates containing 10 μl of 20× concentrated stock solutions of the agonist [D-Ala^2, N-methyl-Phe^4 Gly-ol^5]-enkephalin (DAMGO) prepared in dimethyl sulfoxide (DMSO). Plates were incubated for 30 min at about 25° C. with shaking. Reactions were terminated by rapid filtration onto 96-well Unifilter GF/B filter plates (Perkin Elmer, Shelton, Conn.) using a 96-well tissue harvester (Perkin Elmer, Shelton, Conn.) followed by three filtration washes with 200 μl of ice-cold wash buffer (10 mM NaH2PO4, 10 mM Na2HPO4, pH 7.4). Filter plates were subsequently dried at 50° C. for 2-3 hours. BetaScint scintillation cocktail (Perkin Elmer, Shelton, Conn.) was added (50 μl/well) and plates were counted using a Packard Top-Count for 1 min/well. Data were analyzed using the sigmoidal dose-response curve fitting functions in GraphPad PRISM v. 3.0, or an in-house function for non-linear, sigmoidal dose-response curve-fitting. [^35S]GTPγS functional assays can also be conducted using freshly thawed μ-receptor membranes prepared from a cell line expressing recombinant μ opioid receptor in a CHO-K1 cell background.
(§3) μ GTP EC50 is the concentration of a compound providing 50% of the maximal response for the compound at a μ-opioid receptor.
(§4) μ GTP Emax (%) is the maximal effect elicited by a compound relative to the effect elicited by DAMGO, a standard μ agonist.
(§5) In TABLE 4, activity response of certain Compounds of the Invention to the μ- and κ-opioid receptors was determined as described above for functional assays using HEK-293 cells.

κ-opioid receptor [4] = molecular target: T2, κ-opioid receptor (Homo sapiens (Human), UniProt P41145); assay: κ-opioid receptor [35S]GTPγS functional assay (HEK-293 cells); type: biochemical; conditions: for Emax: HEK-293 cells, relative to U69,593
Description: (§6) Functional [^35S]GTPγS binding assays were conducted as follows. κ opioid receptor membrane solution was prepared by sequentially adding final concentrations of 0.026 μg/μl κ membrane protein (in-house), 10 μg/mL saponin, 3 μM GDP and 0.20 nM [^35S]GTPγS to binding buffer (100 mM NaCl, 10 mM MgCl2, 20 mM HEPES, pH 7.4) on ice. The prepared membrane solution (190 μl/well) was transferred to 96-shallow well polypropylene plates containing 10 μl of 20× concentrated stock solutions of agonist prepared in DMSO. Plates were incubated for 30 min at a temperature of about 25° C. with shaking. Reactions were terminated by rapid filtration onto 96-well Unifilter GF/B filter plates (Perkin Elmer, Shelton, Conn.) using a 96-well tissue harvester (Packard) and followed by three filtration washes with 200 μl ice-cold binding buffer (10 mM NaH2PO4, 10 mM Na2HPO4, pH 7.4). Filter plates were subsequently dried at 50° C. for 2-3 hours. Fifty μl/well scintillation cocktail (Perkin Elmer, Shelton, Conn.) was added and plates were counted in a Packard Top-Count for 1 min/well.
(§7) κ GTP EC50 is the concentration of a compound providing 50% of the maximal response for the compound at a κ receptor.
(§8) κ GTP Emax (%) is the maximal effect elicited by a compound relative to the effect elicited by U69,593.
as §5

κ-opioid receptor [5] = molecular target: T2, κ-opioid receptor; assay: κ-opioid receptor functional assay (U-2 OS cells); type: biochemical; conditions: for Emax: U-2 OS cells, relative to U69,593
Description: as §6, §7, §8
The following TABLE 5 provides results on the activity response of certain Compounds of the Invention at the μ- and κ-opioid receptors determined as described above using U-2 OS cells.

μ-opioid receptor [6] = molecular target: T1, μ-opioid receptor; assay: μ-opioid receptor functional assay (U-2 OS cells); type: biochemical; conditions: for Emax: U-2 OS cells, relative to DAMGO
Description: as §2, §3, §4

Row | SMILES | Ki (μ-opioid receptor [1]) | Ki [2] | EC50 (μ-opioid receptor [3]) | Emax (μ-opioid receptor [3]) | EC50 (κ-opioid receptor [4]) | Emax (κ-opioid receptor [4]) | EC50 (κ-opioid receptor [5]) | Emax (κ-opioid receptor [5]) | EC50 (μ-opioid receptor [6]) | Emax (μ-opioid receptor [6])
1 | COc1ccc2c(c1)[C@]13CCN(CC4CC4)[C@H](C2)[C@]12CC[C@](N)(C3)C(=O)O2 [Compound 3, (4bR,6S,8aS,9R)-6-amino-11-(cyclopropylmethyl)-3-methoxy-5,6,7,8,9,10-hexahydro-9,4b-(epiminoethano)-8a,6-(epoxymethano)phenanthren-15-one] | 1330 ± 313 nM | 248 ± 54.6 nM | 2980 ± 706 nM | 48.3 ± 6.01% | 3010 ± 274 nM | 79.7 ± 10.3% | 807 ± 83.2 nM | 99 ± 1.73% |  | 
2 | COc1ccc2c(c1)[C@]13CCN(CC4CC4)[C@H](C2)[C@]12CC[C@](O)(C3)C(=O)O2 [Compound 4, (4bR,6S,8aS,9R)-11-(cyclopropylmethyl)-6-hydroxy-3-methoxy-5,6,7,8,9,10-hexahydro-9,4b-(epiminoethano)-8a,6-(epoxymethano)phenanthren-15-one] | 6350 ± 1020 nM | 251 ± 62.9 nM | > 20000 nM | 1% | 2850 ± 1190 nM | 92 ± 6.03% | 1110 ± 159 nM | 105 ± 7.02% |  | 
3 | O=C1O[C@@]23CC[C@]1(O)C[C@@]21CCN(CC2CC2)[C@@H]3Cc2ccc(O)cc21 [Compound 9, (4bR,6S,8aS,9R)-11-(cyclopropylmethyl)-3,6-dihydroxy-5,6,7,8,9,10-hexahydro-9,4b-(epiminoethano)-8a,6-(epoxymethano)phenanthren-15-one] | 10.1 ± 2.46 nM | 0.95 ± 0.29 nM | > 20000 nM | 0.5 ± 0.5% | 54.7 ± 7.26 nM | 54 ± 3.89% | 5.23 ± 0.38 nM | 91.7 ± 4.84% | 9.17 ± 1.18 nM | 63.7 ± 5.21%
4 | N[C@]12CC[C@@]3(OC1)[C@H]1Cc4ccc(O)cc4[C@@]3(CCN1CC1CC1)C2 [Compound 17, (4bR,6S,8aS,9R)-6-amino-11-(cyclopropylmethyl)-5,6,7,8,9,10-hexahydro-9,4b-(epiminoethano)-8a,6-(epoxymethano)phenanthren-3-ol] | 0.79 ± 0.19 nM | 0.096 ± 0.026 nM | > 20000 nM | 0% | 0.48 ± 0.02 nM | 75 ± 5.03% | 0.3 ± 0.032 nM | 106 ± 6.84% | 0.65 ± 0.078 nM | 77 ± 1%
5 | COc1ccc2c(c1)[C@]13CCN(CC4CC4)[C@H](C2)[C@]12CC[C@@](NC(=O)C(C)(C)C)(CO2)C3 [Compound 21, N-((4bR,6S,8aS,9R)-11-(cyclopropylmethyl)-3-methoxy-5,6,7,8,9,10-hexahydro-9,4b-(epiminoethano)-8a,6-(epoxymethano)phenanthren-6-yl)pivalamide] | 265 ± 77.5 nM | 0.33 ± 0.023 nM | 359 ± 128 nM | 35 ± 4.04% | 3.25 ± 0.37 nM | 97.3 ± 1.33% | 1.12 ± 0.056 nM | 111 ± 3.28% | 86.8 ± 2.57 nM | 92.7 ± 2.91%
6 | CC(C)(C)C(=O)N[C@]12CC[C@@]3(OC1)[C@H]1Cc4ccc(O)cc4[C@@]3(CCN1CC1CC1)C2 [Compound 26, N-((4bR,6S,8aS,9R)-11-(cyclopropylmethyl)-3-hydroxy-5,6,7,8,9,10-hexahydro-9,4b-(epiminoethano)-8a,6-(epoxymethano)phenanthren-6-yl)pivalamide] | 0.056 ± 0.01 nM | 0.059 ± 0.01 nM | > 20000 nM | 4 ± 1.53% |  |  | 0.031 nM | 91.7 ± 2.73% | 0.28 ± 0.01 nM | 89 ± 3.06%
7 | O=C(N[C@]12CC[C@@]3(OC1)[C@H]1Cc4ccc(O)cc4[C@@]3(CCN1CC1CC1)C2)c1ccccc1 [Compound 27, N-((4bR,6S,8aS,9R)-11-(cyclopropylmethyl)-3-hydroxy-5,6,7,8,9,10-hexahydro-9,4b-(epiminoethano)-8a,6-(epoxymethano)phenanthren-6-yl)benzamide] | 0.019 ± 0.01 nM | 0.062 ± 0.012 nM | 0.58 ± 0.18 nM | 34.7 ± 1.45% | 0.14 nM | 94.2 ± 2.12% | 0.028 nM | 93.3 ± 3.84% | 0.037 ± 0.01 nM | 112 ± 3.51%
